Experimental findings from patent US20130252917A1, “COMBINATION THERAPY OF 4-(3-(2H-1,2,3-TRIAZO-2-YL)PHENYLAMINO)-2-((1R,2S)-2-AMINOCYCLOHEXYLAMINO)PYRIMIDINE-5-CARBOXAMIDE AND FLUDARABINE” (priority 2010, published 2013) are described below.

The assay concerns primary CLL cells. Put plainly: tetrazolium-based cell viability assay (MTS) on primary CLL cells, Compound 1 with or without fludarabine. The settings on record: for IC50: Homo sapiens, CLL cell. Also on record: species or system human. The procedure: Fresh primary CLL cells from 42 CLL patients were purified using a Ficoll gradient. Purified cells were then added to wells (5×10^4 per well) containing 10% serum serum containing media and four serial dilutions of Compound 1 (ranging from 10 nM to 10 μM) with or without different concentrations of fludarabine (also ranging from 10 nM to 10 μM). […] The viability data were normalized to untreated controls and were used to calculate IC50 values. […] Comput. Biomed. Res. 199, 32(2): 145-160).

Where two headings read alike, the source gives them in different places.

For orientation: IC50 means the concentration that gives 50% inhibition. As to `NC(=O)c1cnc(N[C@@H]2CCCC[C@@H]2N)nc1Nc1cccc(-n2nccn2)c1` [Compound 1, 4-(3-(2H-1,2,3-triazol-2-yl)phenylamino)-2-((1R,2S)-2-aminocyclohexylamino)pyrimidine-5-carboxamide], the IC50 was 394 nM (read-out: median IC50 (cell viability)) and 37.5 nM (three of seven samples with the 17p deletion that had significant activity, read-out: IC50 (cell viability)). The cell viability result (samples from relapsed patients and with poor risk features (ZAP70 and/or CD38 expression, 11q deletion, unmutated IgVh)) is recorded as “significant decreases in cell viability”.
